The values that follow come from patent US6989383B1, “Method of treating cancer” (Sloan-Kettering Institute For Cancer Research, priority 1998, dated 2006).

The conditions of data set [1]: TFA salt.
For data set [2], the system named is MCF-7 cells. The data set can be described thus: Mitotic index by bis-benzimide staining and fluorescence microscopy. Format: cell-based, human. The following applies: paclitaxel/Compound A treatments, manual counting of 1000 cells per group. On the procedure: FIG. 5: Specific Effect of a Farnesyl-protein Transferase Inhibitor in combination with pactitaxel on the cell cycle of MCF-7 Cells: The cells which contained the doubled DNA content from the assay described above for FIGS. 4 and 4A-4L were analyzed to determine which particular cell cycle phase was affected by the addition of Compound A to the paclitaxel treatment. Thus, aliquots of the cell populations for the various paclitaxel/Compound A treatments were. fixed in 3% paraformaldehyde for 10 minutes, washed in PBS and stained in 24 μg/ml bis-benzimide in PBS. Mitotic cells were distinguished from interphase cells under fluorescence microscopy by characteristic chromatin condensation and mitotic indices were obtained by manual counting of 1000 cells in each experimental treatment group.

In data set [3] the test system is MCF-7 cells. Description: In vitro cell cycle assay (DNA content by flow cytometry). Format: cell-based, human. The following applies: 24 hour treatment with various concentrations of paclitaxel in presence or absence of 1 μM Compound A. The method, then:
FIGS. 4 and 4A-4L: Effect of a Farnesyl-protein Transferase Inhibitor in combination with paclitaxel on the cell cycle of MCF-7 Cells: MCF-7 cells were preincubated for one day, followed by a 24 hour treatment with various concentrations of paclitaxel in the presence or absence of 1 μM Compound A. The DNA contents of the cells were then assessed according to the protocol described in “In vitro cell cycle assay.” The cell population having various DNA quantities was then determined and analyzed graphically. […] FIGS. 4A-4L show the individual histograms in greater detail. FIGS. 4A-4F show the histograms of the treatment in the absence of Compound A and with increasing concentrations of paclitaxel (the left column of FIG. 4). FIGS. 4G-4L show the histograms of the treatment in the presence of 1 μM of Compound A and with increasing concentrations of paclitaxel (the right column of FIG. 4).
Cancer cells (MCF-7, MDA468 or DU-145) are seeded in a 10 cm dish at 1,000,000 cells per dish. After one day in growth media, the cells are exposed to various concentrations of a antineoplastic agent along with vehicle (PBS) or 1 μM FTI in the vehicle. After 24 hours of exposure to the combination or antineoplastic agent, the cells are trypsinized and stained with ethidium bromide. The stained nucleii are analyzed by flow cytometry for evaluation of the DNA content.

For `CC[C@H](C)[C@@H](CO[C@@H](Cc1ccccc1)C(=O)NC1CCOC1=O)NC[C@@H](N)CS` (stereo partly drawn) [Compound 5-1, 2(S)-[2(S)-[2(R)-Amino-3-mercapto]-propylamino-3(S)-methyl]pentyloxy-3-phenylpropionyl-homoserine lactone], in data set [1], the “stability in solution exposed to air” value was “prone to disulphide formation if left in solution and exposed to air”.

With `CCC(C)[C@@H](CO[C@@H](Cc1ccccc1)C(=O)N[C@@H](CCS(C)(=O)=O)C(=O)OC(C)C)NC[C@@H](N)CS` (stereo partly drawn) [Compound A, 2(S)-[2(S)-[2(R)-Amino-3-mercapto]-propylamino-3(S)-methyl)-pentyloxy-3-phenylpropionyl-methionine sulfone isopropyl ester], the “cell cycle phase affected by addition of Compound A to paclitaxel treatment (mitotic indices)” value in the data set on MCF-7 cells [2] was “enhancement in blockage at the G2/M phase of the cell cycle is largely due to an effect on the M-phase”. Moreover, the “effect on paclitaxel-induced G2/M phase arrest” value with MCF-7 cells [3] is given as “increases the molar potency with which paclitaxel causes G2/M phase arrest”.
